Test results reported in patent US20240043417A1, “COMPOUNDS FOR THE TREATMENT OF SARS” (Purdue Research Foundation, priority 2020, published 2024).
Where two headings read alike, the source gives them in different places.

Tests used:
SARS-CoV-2 3CLpro = SARS-CoV-2 3CLpro (Severe acute respiratory syndrome coronavirus 2 (2019-nCoV) (SARS-CoV-2), UniProt P0DTD1); assay: SARS-CoV-2 3CLpro enzyme inhibition assay; type: biochemical
SARS-CoV-2 = assay: microbe, parasite or virus in culture; type: cell-based; details: Severe acute respiratory syndrome coronavirus 2; read-out: Antiviral EC50 Data
[1] = SARS-CoV-2 3CLpro, 10 minutes pre-incubation of enzyme with compound, read-out: Enzyme IC50 Data

Compound | IC50 (SARS-CoV-2 3CLpro) [µM] | EC50 (SARS-CoV-2) [µM] | IC50 (SARS-CoV-2 3CLpro; [1]) [µM] | IC50 (SARS-CoV-2 3CLpro; read-out: Enzyme IC50 Data, SARS-CoV-2 3CLpro, 10 minutes pre-incubation of enzyme with compound) [µM]
CCCO[C@@H]1C[C@@H](C(=O)N[C@@H](C[C@@H]2CCNC2=O)C(=O)c2nc3ccccc3s2)N(C(=O)[C@@H](NC(=O)NC(C)(C)C)C(C)(C)C)C1 | 0.1 to 5 | 50 to 100 | – | –
CCCO[C@@H]1C[C@@H](C(=O)N[C@@H](CC2CCNC2=O)C(=O)c2nc3ccccc3s2)N(C(=O)C(NC(=O)NC(C)(C)C)C(C)C)C1 (some centres unmarked) | 0.1 to 5 | 50 to 100 | – | –
CCCN(CCC)[C@@H]1C[C@@H](C(=O)N[C@@H](C[C@H]2CCNC2=O)C(=O)c2nc3ccccc3s2)N(C(=O)[C@@H](NC(=O)OC(C)(C)C)C(C)(C)C)C1 | 0.1 to 5 | 5 to 50 | – | –
CCCC(=O)N[C@@H]1C[C@@H](C(=O)N[C@@H](C[C@H]2CCNC2=O)C(=O)c2nc3ccccc3s2)N(C(=O)[C@@H](NC(=O)OC(C)(C)C)C(C)(C)C)C1 | 0.1 to 5 | > 100 | – | –
CC(C)(C)NC(=O)N[C@H](C(=O)N1C[C@H]2[C@@H]([C@H]1C(=O)N[C@@H](C[C@@H]1CCNC1=O)C(=O)c1nc3ccccc3s1)C2(C)C)C(C)(C)C | 50 to 100 | 5 to 50 | – | –
CC(C)(C)NC(=O)N[C@H](C(=O)N1C[C@H]2[C@@H]([C@H]1C(=O)N[C@@H](C[C@@H]1CCNC1=O)C(=O)C(=O)NCc1ccccc1)C2(C)C)C(C)(C)C | 50 to 100 | > 100 | – | –
CC(C)(C)NC(=O)N[C@H](C(=O)N1C[C@H]2[C@@H]([C@H]1C(=O)N[C@@H](C[C@@H]1CCNC1=O)C(=O)c1nc(-c3ccccc3)cs1)C2(C)C)C(C)(C)C | 5 to 50 | 5 to 50 | – | –
CC(C)(C)NC(=O)N[C@H](C(=O)N1C[C@H]2[C@@H]([C@H]1C(=O)N[C@@H](C[C@@H]1CCNC1=O)C(=O)C(N)=O)C2(C)C)C(C)(C)C | – | > 100 | – | –
CCCO[C@@H]1C[C@@H](C(=O)N[C@@H](C[C@@H]2CCNC2=O)C(=O)c2nc(-c3ccccc3)cs2)N(C(=O)[C@@H](NC(=O)NC(C)(C)C)C(C)(C)C)C1 | – | 5 to 50 | > 100 | –
CCCN(CCC)[C@@H]1C[C@@H](C(=O)N[C@@H](C[C@H]2CCNC2=O)C(=O)c2nc3ccccc3s2)N(C(=O)[C@@H](NC(=O)NC(C)(C)C)C(C)(C)C)C1 | – | 5 to 50 | > 100 | –
CCCC(=O)N[C@@H]1C[C@@H](C(=O)N[C@@H](C[C@H]2CCNC2=O)C(=O)c2nc3ccccc3s2)N(C(=O)[C@@H](NC(=O)NC(C)(C)C)C(C)(C)C)C1 | 0.1 to 5 | > 100 | – | –
CC(C)(C)NC(=O)N[C@H](C(=O)N1C[C@H](N2CCCC2)C[C@H]1C(=O)N[C@@H](C[C@H]1CCNC1=O)C(=O)c1nc2ccccc2s1)C(C)(C)C | 5 to 50 | > 100 | – | –
CC(C)(C)NC(=O)N[C@H](C(=O)N1C[C@H](N2CCOCC2)C[C@H]1C(=O)N[C@@H](C[C@H]1CCNC1=O)C(=O)c1nc2ccccc2s1)C(C)(C)C | – | – | 0.1 to 5 | –
CCCN(CCC)[C@@H]1C[C@@H](C(=O)N[C@@H](C[C@H]2CCNC2=O)C(=O)c2nc(-c3ccccc3)cs2)N(C(=O)[C@@H](NC(=O)NC(C)(C)C)C(C)(C)C)C1 | – | – | 0.1 to 5 | –
CC(C)(C)[C@H](NC(=O)NCc1ccncc1)C(=O)N1C[C@H]2[C@@H]([C@H]1C(=O)N[C@@H](C[C@@H]1CCNC1=O)C(=O)c1nc(-c3ccccc3)cs1)C2(C)C | – | – | 0.1 to 5 | –
CN(C)[C@@H]1C[C@@H](C(=O)N[C@@H](C[C@@H]2CCNC2=O)C(=O)c2nc(-c3ccccc3)cs2)N(C(=O)[C@@H](NC(=O)NC(C)(C)C)C(C)(C)C)C1 | – | – | 0.1 to 5 | –
CCN(CC)[C@@H]1C[C@@H](C(=O)N[C@@H](C[C@@H]2CCNC2=O)C(=O)c2nc(-c3ccccc3)cs2)N(C(=O)[C@@H](NC(=O)NC(C)(C)C)C(C)(C)C)C1 | – | – | 0.1 to 5 | –
CC(C)(C)NC(=O)N[C@H](C(=O)N1C[C@H]2[C@@H]([C@H]1C(=O)N[C@@H](C[C@@H]1CCNC1=O)C(=O)c1nc(-c3ccccc3)co1)C2(C)C)C(C)(C)C | – | – | 50 to 100 | –
CC(=O)OC(C#N)[C@H](CC1CCCNC1=O)NC(=O)[C@@H]1[C@@H]2[C@H](CN1C(=O)C(NC(=O)NC(C)(C)C)C(C)(C)C)C2(C)C (some centres unmarked) | – | > 100 | – | –
CCCN(CCC)[C@@H]1C[C@@H](C(=O)NC(C#N)C[C@@H]2CCNC2=O)N(C(=O)[C@@H](NC(=O)C(F)(F)F)C(C)(C)C)C1 (some centres unmarked) | > 100 | > 100 | – | –
CCCN(CCC)[C@@H]1C[C@@H](C(=O)NC(C#N)C[C@@H]2CCNC2=O)N(C(=O)[C@@H](NC(=O)OC(C)(C)C)C(C)(C)C)C1 (some centres unmarked) | – | 5 to 50 | > 100 | –
CCCO[C@@H]1C[C@@H](C(=O)NC(C#N)C[C@@H]2CCNC2=O)N(C(=O)[C@@H](NC(=O)NC(C)(C)C)C(C)(C)C)C1 (some centres unmarked) | 50 to 100 | > 100 | – | –
CC(C)(C)NC(=O)N[C@H](C(=O)N1C[C@H]2[C@@H]([C@H]1C(=O)NC(C#N)C[C@@H]1CCNC1=O)C2(C)C)C(C)(C)C (some centres unmarked) | – | > 100 | – | –
CC(C)(C)[C@H](NC(=O)c1ccccc1)C(=O)N1C[C@H]2[C@@H]([C@H]1C(=O)N[C@H](C#N)C[C@@H]1CCNC1=O)C2(C)C | – | 50 to 100 | – | –
CCCO[C@@H]1C[C@@H](C(=O)N[C@@H](C[C@@H]2CCNC2=O)C(=O)c2nc3ccccc3s2)N(C(=O)[C@@H](NC(=O)OC(C)(C)C)C(C)(C)C)C1 [drawing 99] | 0.1 to 5 | 0.1 to 5 | – | –
CCCO[C@@H]1C[C@@H](C(=O)N[C@@H](C[C@@H]2CCNC2=O)C(=O)c2nc3ccccc3s2)N(C(=O)[C@@H](NC(=O)OC(C)(C)C)C(C)(C)C)C1 [drawing 100] | – | – | – | 0.1 to 5
